Assay in all cases: biochemical
Holding throughout (design): endogenous in cells; host or cells: K562 cell extract; species or system K562 (extract); replicate k of n = 2 (each experiment ID is one independent experiment; two experiment IDs per compound)
Common to all, as to conditions: read-out: KDapp

The target in assay [1] is JAK1 (Homo sapiens, UniProt P23458).
In assay [2] the target is PRKACB (Homo sapiens, UniProt P22694).
The target of assay [3] is MAPK7 (Homo sapiens, UniProt Q13164).
For assay [4], the target named is CDK7 (Homo sapiens, UniProt P50613).
Assay [5] has as its target CAMKK2 (Homo sapiens, UniProt Q96RR4).
The target of assay [6] is CRKRS (Homo sapiens, UniProt Q9NYV4).
For assay [7], the target named is TYK2 (Homo sapiens, UniProt P29597).
Assay [8] has as its target T1, LATS1 (Homo sapiens, UniProt O95835).
T1 sequence (O95835 1-1130): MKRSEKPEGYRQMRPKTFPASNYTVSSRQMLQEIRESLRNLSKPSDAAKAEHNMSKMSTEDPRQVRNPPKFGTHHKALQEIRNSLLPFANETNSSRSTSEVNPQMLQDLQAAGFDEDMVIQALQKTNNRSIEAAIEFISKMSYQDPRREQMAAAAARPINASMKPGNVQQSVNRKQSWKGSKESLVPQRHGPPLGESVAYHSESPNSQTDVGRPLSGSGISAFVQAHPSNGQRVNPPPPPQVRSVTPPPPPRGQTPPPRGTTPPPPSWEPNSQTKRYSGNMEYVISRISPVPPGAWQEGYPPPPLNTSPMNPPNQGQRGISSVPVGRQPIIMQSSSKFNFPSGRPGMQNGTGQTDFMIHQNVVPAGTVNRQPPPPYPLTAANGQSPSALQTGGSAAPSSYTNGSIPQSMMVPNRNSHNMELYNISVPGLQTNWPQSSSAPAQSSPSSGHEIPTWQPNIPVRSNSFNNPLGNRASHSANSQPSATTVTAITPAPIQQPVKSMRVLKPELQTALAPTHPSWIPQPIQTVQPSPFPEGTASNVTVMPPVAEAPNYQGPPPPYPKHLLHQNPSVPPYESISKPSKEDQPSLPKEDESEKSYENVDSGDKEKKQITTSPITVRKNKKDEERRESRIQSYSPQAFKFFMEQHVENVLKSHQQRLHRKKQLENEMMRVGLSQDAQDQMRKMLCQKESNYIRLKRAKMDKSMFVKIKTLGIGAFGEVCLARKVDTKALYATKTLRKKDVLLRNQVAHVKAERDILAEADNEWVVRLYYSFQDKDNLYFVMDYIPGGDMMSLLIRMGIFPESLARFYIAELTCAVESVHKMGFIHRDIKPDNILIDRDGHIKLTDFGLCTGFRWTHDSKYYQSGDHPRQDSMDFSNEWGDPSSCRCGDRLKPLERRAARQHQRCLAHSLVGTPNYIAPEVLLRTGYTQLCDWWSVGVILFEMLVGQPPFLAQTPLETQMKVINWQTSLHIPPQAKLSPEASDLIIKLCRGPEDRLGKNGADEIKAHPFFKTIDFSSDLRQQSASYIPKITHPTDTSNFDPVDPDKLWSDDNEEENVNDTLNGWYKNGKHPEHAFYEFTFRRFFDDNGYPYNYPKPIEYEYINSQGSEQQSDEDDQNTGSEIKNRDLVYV

The target of assay [9] is MINK1 (Homo sapiens, UniProt Q8N4C8).
The target in assay [10] is PRKCB (Homo sapiens, UniProt P05771).
The target in assay [11] is STK16 (Homo sapiens, UniProt O75716).
The target in assay [12] is SLK (Homo sapiens, UniProt Q9H2G2).

Several values for one entry are separate records, joined by “and”; a condition that tells them apart may be missing. Identical values can stand only once.

Sequence of SLK (Q9H2G2 whole entry): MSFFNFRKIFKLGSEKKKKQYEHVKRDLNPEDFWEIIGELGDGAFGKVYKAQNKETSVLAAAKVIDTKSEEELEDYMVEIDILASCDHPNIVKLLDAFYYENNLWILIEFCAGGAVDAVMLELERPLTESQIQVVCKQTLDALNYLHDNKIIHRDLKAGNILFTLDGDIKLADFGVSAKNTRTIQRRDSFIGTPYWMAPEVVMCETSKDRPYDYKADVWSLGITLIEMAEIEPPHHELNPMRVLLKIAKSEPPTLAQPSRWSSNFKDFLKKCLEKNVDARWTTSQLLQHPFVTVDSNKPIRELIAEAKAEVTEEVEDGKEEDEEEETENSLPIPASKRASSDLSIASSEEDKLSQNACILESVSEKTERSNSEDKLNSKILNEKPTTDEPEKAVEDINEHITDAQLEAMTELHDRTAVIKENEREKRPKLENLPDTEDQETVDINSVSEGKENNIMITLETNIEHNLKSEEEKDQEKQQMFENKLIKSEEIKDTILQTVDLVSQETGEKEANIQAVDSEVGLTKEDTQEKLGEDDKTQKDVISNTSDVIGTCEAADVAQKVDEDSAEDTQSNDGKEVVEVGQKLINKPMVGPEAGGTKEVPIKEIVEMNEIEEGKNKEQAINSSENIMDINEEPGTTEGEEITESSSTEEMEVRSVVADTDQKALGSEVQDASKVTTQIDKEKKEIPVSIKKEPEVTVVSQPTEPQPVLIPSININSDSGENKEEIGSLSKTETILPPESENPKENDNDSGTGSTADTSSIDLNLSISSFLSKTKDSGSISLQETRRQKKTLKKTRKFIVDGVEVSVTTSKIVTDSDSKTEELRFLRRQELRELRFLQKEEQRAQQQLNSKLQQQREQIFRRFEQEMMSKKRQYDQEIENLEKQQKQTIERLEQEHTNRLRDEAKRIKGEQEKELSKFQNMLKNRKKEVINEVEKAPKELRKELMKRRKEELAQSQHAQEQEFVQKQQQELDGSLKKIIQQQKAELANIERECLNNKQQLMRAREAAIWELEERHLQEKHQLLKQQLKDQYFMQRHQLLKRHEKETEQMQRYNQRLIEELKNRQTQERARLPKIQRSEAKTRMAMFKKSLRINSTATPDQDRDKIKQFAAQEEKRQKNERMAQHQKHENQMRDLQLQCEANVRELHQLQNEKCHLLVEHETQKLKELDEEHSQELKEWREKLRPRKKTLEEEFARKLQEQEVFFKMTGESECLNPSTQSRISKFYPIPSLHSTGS
Sequence of TYK2 (P29597 whole entry): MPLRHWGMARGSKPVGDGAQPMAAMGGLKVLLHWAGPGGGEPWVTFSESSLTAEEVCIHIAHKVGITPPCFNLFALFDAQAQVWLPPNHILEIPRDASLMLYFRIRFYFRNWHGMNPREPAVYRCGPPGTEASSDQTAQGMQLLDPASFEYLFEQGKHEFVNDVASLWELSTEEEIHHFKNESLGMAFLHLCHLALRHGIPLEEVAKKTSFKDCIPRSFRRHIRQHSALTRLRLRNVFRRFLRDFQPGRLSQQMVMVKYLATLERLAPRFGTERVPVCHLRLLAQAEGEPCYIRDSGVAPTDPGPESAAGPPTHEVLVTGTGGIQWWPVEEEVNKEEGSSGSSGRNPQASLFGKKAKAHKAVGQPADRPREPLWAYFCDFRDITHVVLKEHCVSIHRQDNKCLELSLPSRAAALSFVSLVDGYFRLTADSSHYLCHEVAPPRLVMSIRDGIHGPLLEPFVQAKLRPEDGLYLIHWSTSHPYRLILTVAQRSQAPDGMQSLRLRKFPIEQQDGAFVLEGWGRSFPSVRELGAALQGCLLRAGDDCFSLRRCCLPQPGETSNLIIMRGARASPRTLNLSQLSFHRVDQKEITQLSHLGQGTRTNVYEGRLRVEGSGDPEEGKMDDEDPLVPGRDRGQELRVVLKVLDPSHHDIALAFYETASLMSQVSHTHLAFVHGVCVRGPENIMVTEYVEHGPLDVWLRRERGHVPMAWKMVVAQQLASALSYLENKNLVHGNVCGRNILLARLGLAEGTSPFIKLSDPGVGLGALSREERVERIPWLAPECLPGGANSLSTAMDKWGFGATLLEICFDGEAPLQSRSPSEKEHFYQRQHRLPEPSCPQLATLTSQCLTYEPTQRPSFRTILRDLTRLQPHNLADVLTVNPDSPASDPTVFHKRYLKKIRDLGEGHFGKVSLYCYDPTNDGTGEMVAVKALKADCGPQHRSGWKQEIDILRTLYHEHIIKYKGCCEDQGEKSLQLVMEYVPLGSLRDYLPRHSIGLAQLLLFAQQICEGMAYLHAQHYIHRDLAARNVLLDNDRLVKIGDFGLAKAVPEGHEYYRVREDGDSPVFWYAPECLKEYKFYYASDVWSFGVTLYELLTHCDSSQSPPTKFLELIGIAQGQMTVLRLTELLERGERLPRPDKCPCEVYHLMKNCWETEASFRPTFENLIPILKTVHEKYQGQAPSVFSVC
Sequence of STK16 (O75716 whole entry): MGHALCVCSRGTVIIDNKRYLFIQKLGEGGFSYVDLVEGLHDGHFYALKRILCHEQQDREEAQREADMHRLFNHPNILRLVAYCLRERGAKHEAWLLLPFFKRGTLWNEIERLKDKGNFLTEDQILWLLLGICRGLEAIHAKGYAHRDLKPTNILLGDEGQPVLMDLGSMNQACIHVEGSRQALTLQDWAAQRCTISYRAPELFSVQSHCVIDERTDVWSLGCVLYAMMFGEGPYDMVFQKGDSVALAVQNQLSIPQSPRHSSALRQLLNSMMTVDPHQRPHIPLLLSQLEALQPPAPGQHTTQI
Sequence of CAMKK2 (Q96RR4 whole entry): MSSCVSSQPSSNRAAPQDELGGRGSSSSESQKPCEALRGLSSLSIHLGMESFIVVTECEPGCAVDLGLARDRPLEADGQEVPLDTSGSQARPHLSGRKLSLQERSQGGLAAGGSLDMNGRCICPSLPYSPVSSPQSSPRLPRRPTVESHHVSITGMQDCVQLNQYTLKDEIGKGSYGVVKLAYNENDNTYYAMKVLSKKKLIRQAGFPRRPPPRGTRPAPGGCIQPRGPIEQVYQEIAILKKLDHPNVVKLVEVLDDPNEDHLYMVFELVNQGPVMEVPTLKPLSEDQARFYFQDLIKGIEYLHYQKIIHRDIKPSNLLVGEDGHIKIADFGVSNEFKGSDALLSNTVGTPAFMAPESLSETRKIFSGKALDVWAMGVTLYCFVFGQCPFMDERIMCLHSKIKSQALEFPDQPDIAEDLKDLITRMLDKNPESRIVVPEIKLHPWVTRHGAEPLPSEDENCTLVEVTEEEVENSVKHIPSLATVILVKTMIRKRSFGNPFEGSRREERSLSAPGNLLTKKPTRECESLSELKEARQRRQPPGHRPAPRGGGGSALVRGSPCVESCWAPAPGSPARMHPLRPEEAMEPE
Sequence of PRKCB (P05771 whole entry): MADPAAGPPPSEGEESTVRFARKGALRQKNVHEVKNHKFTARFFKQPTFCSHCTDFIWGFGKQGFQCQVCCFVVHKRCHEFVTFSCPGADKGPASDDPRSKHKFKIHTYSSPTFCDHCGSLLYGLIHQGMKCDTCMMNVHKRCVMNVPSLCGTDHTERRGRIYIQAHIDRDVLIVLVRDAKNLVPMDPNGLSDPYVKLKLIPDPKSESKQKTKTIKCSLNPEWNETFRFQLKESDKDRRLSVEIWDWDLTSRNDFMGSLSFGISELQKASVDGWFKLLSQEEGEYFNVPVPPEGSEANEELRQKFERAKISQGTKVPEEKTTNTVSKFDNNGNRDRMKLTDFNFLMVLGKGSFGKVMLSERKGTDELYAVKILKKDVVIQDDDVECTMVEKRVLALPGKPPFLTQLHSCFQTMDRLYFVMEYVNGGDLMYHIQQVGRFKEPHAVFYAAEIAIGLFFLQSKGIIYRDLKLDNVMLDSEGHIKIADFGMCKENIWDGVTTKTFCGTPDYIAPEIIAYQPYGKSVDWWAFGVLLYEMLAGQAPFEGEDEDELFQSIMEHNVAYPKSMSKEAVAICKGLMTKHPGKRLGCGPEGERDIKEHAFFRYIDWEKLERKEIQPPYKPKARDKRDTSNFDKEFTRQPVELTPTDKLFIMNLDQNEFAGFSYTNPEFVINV
Sequence of MAPK7 (Q13164 whole entry): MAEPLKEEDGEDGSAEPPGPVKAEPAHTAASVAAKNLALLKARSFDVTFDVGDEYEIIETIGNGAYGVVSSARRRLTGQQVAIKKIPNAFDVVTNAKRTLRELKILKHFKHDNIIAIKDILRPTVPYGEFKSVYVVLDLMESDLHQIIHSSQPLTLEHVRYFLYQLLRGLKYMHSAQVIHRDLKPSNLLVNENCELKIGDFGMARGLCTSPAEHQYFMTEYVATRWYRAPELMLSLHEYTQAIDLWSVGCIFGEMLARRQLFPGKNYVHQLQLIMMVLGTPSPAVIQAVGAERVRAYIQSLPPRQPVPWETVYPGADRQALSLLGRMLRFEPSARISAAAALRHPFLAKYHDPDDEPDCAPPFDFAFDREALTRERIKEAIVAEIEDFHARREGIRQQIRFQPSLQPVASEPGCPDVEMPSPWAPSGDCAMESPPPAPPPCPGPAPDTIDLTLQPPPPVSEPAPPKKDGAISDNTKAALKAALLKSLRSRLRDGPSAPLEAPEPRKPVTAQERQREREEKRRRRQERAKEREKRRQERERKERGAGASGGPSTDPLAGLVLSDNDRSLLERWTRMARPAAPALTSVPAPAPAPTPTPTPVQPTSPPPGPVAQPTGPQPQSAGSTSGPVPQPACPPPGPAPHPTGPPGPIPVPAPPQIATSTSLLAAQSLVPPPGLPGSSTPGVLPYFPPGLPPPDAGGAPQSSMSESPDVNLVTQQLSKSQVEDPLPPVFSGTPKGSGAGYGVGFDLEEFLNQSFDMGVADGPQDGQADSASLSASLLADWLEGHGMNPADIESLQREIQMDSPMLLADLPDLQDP

As for `CN1CCN(c2ccc(Nc3ncc(C#N)c(Nc4ccccc4C(N)=O)n3)cc2)CC1.Cl` [TCMDC-134116], the Kd in assay [1] was 13.1 nM and 19.5 nM; in assay [2], 5740 nM; in [3], 140 nM and 190 nM; in assay [4] it was 422 nM and 494 nM; in [5], 131 nM and 139 nM; in [6], 507 nM. Moreover, the Kd was 35.6 nM and 32.8 nM in assay [7]; 174 nM in [8]; 173 nM in assay [9]; 410 nM in assay [10]; 135 nM and 190 nM in [11]; 28.5 nM and 33.8 nM in [12].
With `Cl.NCC1(c2nc(-c3ccc(Cl)c(O)c3)c(-c3ccncc3)[nH]2)CCCCC1` [TCMDC-141154], the Kd in assay [2] was 811 nM; in assay [3] it was 549 nM and 949 nM; in assay [8], 911 nM; in assay [9], 837 nM; in assay [10], 5660 nM and 2780 nM.
As for `CN(C)CC(O)COc1ccc(Nc2ncc([N+](=O)[O-])c(Nc3ccccc3O)n2)cc1.O=C(O)C(F)(F)F` (stereo not drawn) [TCMDC-141399], the Kd in [1] is 272 nM and 346 nM; in assay [4], 1430 nM and 4620 nM; in [5], 1940 nM and 2040 nM; in assay [6], 1640 nM; in [7] it was 677 nM; in [11] it was 551 nM. Besides, the Kd in assay [12] was 528 nM and 593 nM.
